Patent US9682960B2 (priority 2013, dated 2017)
Like-named read-outs stand apart in the source and are kept apart here.

Legend:
[1] = biological target: Human Androgen Receptor (Homo sapiens (Human), UniProt P10275); experiment: Androgen receptor assay: [3H]R1881 displacement, cytosol of HEK-293 cells transfected with hAR (hydroxylapatite assay); type: binding; conditions: for Human Androgen Receptor Binding RBA (%) R1881 = 100: relative binding affinity; for times more potent than OH-flutamide on the human AR (RBA ratio): versus hydroxyflutamide
Human Androgen Receptor, sequence (P10275 whole entry): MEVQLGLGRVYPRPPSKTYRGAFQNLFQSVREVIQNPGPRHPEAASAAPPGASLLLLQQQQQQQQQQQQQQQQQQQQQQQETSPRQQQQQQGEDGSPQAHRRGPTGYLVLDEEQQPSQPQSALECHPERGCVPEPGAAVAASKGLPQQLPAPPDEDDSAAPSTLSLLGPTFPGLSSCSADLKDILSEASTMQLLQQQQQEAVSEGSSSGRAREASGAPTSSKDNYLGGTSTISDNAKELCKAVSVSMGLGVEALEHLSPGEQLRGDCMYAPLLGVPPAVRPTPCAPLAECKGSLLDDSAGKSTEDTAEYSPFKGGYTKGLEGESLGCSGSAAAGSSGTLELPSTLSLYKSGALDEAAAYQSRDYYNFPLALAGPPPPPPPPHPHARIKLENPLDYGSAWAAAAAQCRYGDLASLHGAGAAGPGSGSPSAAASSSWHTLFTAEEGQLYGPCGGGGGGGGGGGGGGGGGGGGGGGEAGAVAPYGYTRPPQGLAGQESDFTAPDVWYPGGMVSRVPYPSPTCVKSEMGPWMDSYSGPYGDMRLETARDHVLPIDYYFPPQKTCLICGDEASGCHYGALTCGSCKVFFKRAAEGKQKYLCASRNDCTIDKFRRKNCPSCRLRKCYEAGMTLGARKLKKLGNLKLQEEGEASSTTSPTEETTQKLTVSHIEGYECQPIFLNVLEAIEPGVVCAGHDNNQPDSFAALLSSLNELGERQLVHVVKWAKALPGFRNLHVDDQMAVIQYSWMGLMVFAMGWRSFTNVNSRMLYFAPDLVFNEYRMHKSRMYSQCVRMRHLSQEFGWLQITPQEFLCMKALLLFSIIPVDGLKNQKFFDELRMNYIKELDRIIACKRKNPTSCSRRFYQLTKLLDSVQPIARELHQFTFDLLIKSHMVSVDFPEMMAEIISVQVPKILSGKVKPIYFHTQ

[2] = test system: Shionogi mouse mammary carcinoma cells; experiment: In vitro androgenic/antiandrogenic activity: proliferation of Shionogi cells with or without DHT; type: cell-based; conditions: for stimulation at 10^−7M on basal Shionogi cell proliferation (in words): basal (no DHT); for fold more potent than OH-flutamide in reversing DHT-stimulated Shionogi cell proliferation: versus hydroxyflutamide
[3] = Mus musculus, read-out: Shionogi Antiandrogenic Activity IC50, DHT (0.3 nM)-stimulated cell number
[4] = read-out: Shionogi Antiandrogenic Activity IC50, DHT (0.3 nM)-stimulated cell number

Row | SMILES | Human Androgen Receptor Binding RBA (%) R1881 = 100 ([1]; […]) | IC50 [2, 3] | Human Androgen Receptor Binding RBA (%) R1881 = 100 ([1]; transfected cells) | further results
1 | Cc1ccc(-c2ccc(OCCCN3C(=S)N(c4ccc(C#N)c(C(F)(F)F)c4)C(=O)C3(C)C)cc2)cn1 [EM-8908] | 944 ± 265 (n = 2) % | 0.05 µM |  | 
2 | CC1(C)C(=O)N(c2ccc(C#N)c(C(F)(F)F)c2)C(=S)N1CCCOc1ccc(-c2ccnc(F)c2)cc1 [EM-8923] |  | 0.048 µM | 136% | 
3 | CC1(C)C(=O)N(c2ccc(C#N)c(C(F)(F)F)c2)C(=S)N1CCCOc1ccc(-c2cc[n+]([O-])cc2)cc1 [EM-8929] |  |  | 100 ± 12 (n = 2) % | IC50 [2, 4]: 0.017 ± 0.01 µM
4 | CC1(C)C(=O)N(c2ccc(C#N)c(C(F)(F)F)c2)C(=O)N1CCCOc1ccc(-c2cc[n+]([O-])cc2)cc1 [EM-9000] | 1.5 ± 0.3 (n = 2) % | 0.02 ± 0.01 µM |  | 
5 | CC1(C)C(=O)N(c2ccc(C#N)c(F)c2)C(=S)N1CCCOc1ccc(-c2ccncc2)c(F)c1 [EM-9011] |  | 0.0066 ± 0.0008 µM | 43 ± 9 (n = 2) % | 
6 | CC1(C)C(=O)N(c2ccc(C#N)c(F)c2)C(=S)N1CCCOc1ccc(-c2ccncc2)cc1 [EM-9025] |  |  | 39% | stimulation at 10^−7M on basal Shionogi cell proliferation (in words) [2]: none of these compounds has any activity
7 | CC1(C)C(=O)N(c2ccc(C#N)c(Cl)c2)C(=S)N1CCCOc1ccc(-c2ccncc2)c(F)c1 [EM-9037] |  | 0.0087 µM | 1040 ± 350 (n = 2) % | 
8 | CC1(C)C(=O)N(c2ccc(C#N)c(Cl)c2)C(=S)N1CCCOc1ccc(-c2ccncc2)cc1 [EM-9039] | 762 ± 396 (n = 2) % | 0.0026 to 0.0043 µM |  | stimulation at 10^−7M on basal Shionogi cell proliferation (in words) [2]: none of these compounds has any activity; IC50 [2, 4]: 0.0043 µM
9 | CC1(C)C(=O)N(c2ccc(C#N)c(C(F)(F)F)c2)C(=S)N1CCCOc1ccc(-c2cc[n+]([O-])cc2)cc1.Cl [EM-9043] | 175% |  |  | stimulation at 10^−7M on basal Shionogi cell proliferation (in words) [2]: none of these compounds has any activity; IC50 [2, 4]: 0.0034 µM
10 | CC1(C)C(=O)N(c2ccc(C#N)c(Cl)c2)C(=S)N1CCCOc1ccc(-c2cccnc2)cc1 [EM-9049] | 269% | 0.0068 µM |  | 
11 | CC1(C)C(=O)N(c2ccc(C#N)c(C(F)(F)F)c2)C(=S)N1CCCOc1ccc(-c2ccncc2)cn1 [EM-9050] | 317 ± 122 (n = 2) % | 0.012 ± 0.002 µM |  | 
12 | CC1(C)C(=O)N(c2ccc(C#N)c(C(F)(F)F)c2)C(=O)N1CCCOc1ccc(-c2ccncc2)cc1F [EM-9055] |  | 0.0106 µM | 7.3% | 
13 | CC1(C)C(=O)N(c2ccc(C#N)c(C(F)(F)F)c2)C(=O)N1CCCOc1ccc(-c2ccncc2)c(F)c1 [EM-9066] |  | 0.011 ± 0.004 µM | 10.3 ± 1.3 (n = 2) % | 
14 | CC1(C)C(=O)N(c2ccc(C#N)c(C(F)(F)F)c2)C(=O)N1CCCOc1ccc(-c2cc[n+]([O-])cc2)c(F)c1 [EM-9067] |  | 0.012 µM | 2.4% | 
15 | CC1(C)C(=O)N(c2ccc(C#N)c(C(F)(F)F)c2)C(=S)N1CCCCOc1ccc(-c2cccnc2)cc1 [EM-9070] |  | 0.0149 µM | 191% | 
16 | CC1(C)C(=O)N(c2ccc(C#N)c(C(F)(F)F)c2)C(=O)N1CCCOc1ccc(-c2ccncc2)c(C(F)(F)F)c1 [EM-9089] |  | 0.049 µM | 2.0% | 
17 | CC1(C)C(=O)N(c2ccc(C#N)c(C(F)(F)F)c2)C(=S)N1CCCOc1ccc(-c2ccncc2)nc1 [EM-9092] |  | 0.0112 µM | 72% | 
18 | CC1(C)C(=O)N(c2ccc(C#N)c(C(F)(F)F)c2)C(=O)N1CCCOc1ccc(-c2ccncc2)nc1 [EM-9111] | 1.0 ± 0.0 (n = 2) % | 0.019 µM |  | 

Row | SMILES | Human Androgen Receptor Binding RBA (%) R1881 = 100 ([1]; […]) | IC50 [2, 3] | Human Androgen Receptor Binding RBA (%) R1881 = 100 ([1]; transfected cells) | further results
19 | CC1(C)C(=O)N(c2ccc(C#N)c(C(F)(F)F)c2)C(=O)N1CCCOc1ccc(-c2ccncc2)cn1 [EM-9114] | 7.9 ± 4.1 (n = 3) % | 0.0192 ± 0.0003 µM |  | 
20 | CC1(C)C(=O)N(c2ccc(C#N)c(Cl)c2)C(=O)N1CCCOc1ccc(-c2ccncc2)c(F)c1 [EM-9115] | 12.5 ± 2.3 (n = 6) % | 0.018 ± 0.004 µM |  | 
21 | CC1(C)C(=O)N(c2ccc(C#N)c(Cl)c2)C(=O)N1CCCOc1ccc(-c2cc[n+]([O-])cc2)c(F)c1 [EM-9117] | 2.5 ± 0.5 (n = 5) % | 0.031 ± 0.01 µM |  | 
22 | CC1(C)C(=O)N(c2ccc(C#N)c(Cl)c2)C(=O)N1CCCOc1ccc(-c2cc[n+]([O-])cc2)cc1 [EM-9118] | 2.2 ± 0.4 (n = 6) % | 0.015 ± 0.003 µM |  | 
23 | CC1(C)C(=O)N(c2ccc(C#N)c(Cl)c2)C(=S)N1CCCOc1ccc(-c2cc[n+]([O-])cc2)c(F)c1 [EM-9119] | 122% | 0.0121 ± 0.0005 µM |  | 
24 | CC1(C)C(=O)N(c2ccc(C#N)c(Cl)c2)C(=S)N1CCCOc1ccc(-c2cc[n+]([O-])cc2)cc1 [EM-9120] | 106% | 0.0092 ± 0.0008 µM |  | 
25 | CC1(C)C(=O)N(c2ccc(C#N)c(C(F)(F)F)c2)CC(=O)N1CCCOc1ccc(-c2ccncc2)cc1 [EM-9126] | <0.1% | 0.173 µM |  | 
26 | CC1(C)C(=O)N(c2ccc(C#N)c(F)c2)C(=O)N1CCCOc1ccc(-c2cc[n+]([O-])cc2)cc1 [EM-9176] |  | > 0.1 µM | ~0.1% | 
27 | CC1(C)C(=O)N(c2ccc(C#N)c(C(F)(F)F)c2)C(=O)N1CCOc1ccc(-c2cc[n+]([O-])cc2)cc1 [EM-9180] |  | 0.024 µM | 1.7% | 
28 | CC1(C)C(=O)N(c2ccc(C#N)c(Cl)c2)C(=O)N1CCCOc1ccc(-c2ccncc2)cc1F [EM-9198] | 22% | 0.0053 µM |  | times more potent than OH-flutamide on the human AR (RBA ratio) [1]: 105 times; fold more potent than OH-flutamide in reversing DHT-stimulated Shionogi cell proliferation [2]: 6.4 fold
29 | CC1(C)C(=O)N(c2ccc(C#N)c(C(F)(F)F)c2)C(=O)N1Cc1ccc(-c2ccncc2)cc1 [EM-9199] |  | 0.027 µM | 2.3% | 
30 | CC1(C)C(=O)N(c2ccc(C#N)c(C(F)(F)F)c2)C(=O)N1Cc1ccc(-c2cccnc2)cc1 [EM-9200] |  | 0.066 µM | 2.5% | 
31 | N#Cc1ccc(N2C(=O)N(CCCOc3ccc(-c4ccncc4)c(F)c3)C3(CCCC3)C2=O)cc1Cl [EM-9201] | 70.8% | 0.0097 µM |  | 
32 | Cc1c(N2C(=O)N(CCCOc3ccc(-c4ccncc4)c(F)c3)C(C)(C)C2=O)ccc(C#N)c1F [EM-9205] |  | 0.0148 µM | 17.9% | times more potent than OH-flutamide on the human AR (RBA ratio) [1]: 85 times; fold more potent than OH-flutamide in reversing DHT-stimulated Shionogi cell proliferation [2]: 2.3 fold
33 | Cc1cc(OCCCN2C(=O)N(c3ccc(C#N)c(Cl)c3)C(=O)C2(C)C)ccc1-c1cc[n+]([O-])cc1 [EM-9221] | 2.7% | 0.0106 µM |  | 
34 | CC1(C)C(=O)N(c2ccc(C#N)c(Cl)c2)C(=O)N1CCCOc1ccc(-c2cc[n+]([O-])cc2)cc1F [EM-9226] | 2.4% | 0.023 µM |  | 
35 | CC1(C)C(=O)N(c2ccc(C#N)c(C(F)(F)F)c2)C(=O)N1Cc1ccc(-c2ccncc2)c(F)c1 [EM-9227] | 4.9% | 0.0164 µM |  | 
